ChEMBL document CHEMBL4715821, “Discovery of 4-ethoxy-7H-pyrrolo[2,3-d]pyrimidin-2-amines as potent, selective and orally bioavailable LRRK2 inhibitors” (Bioorg Med Chem Lett, 2018)

Assays:
[1] = molecular target: Calcium/calmodulin-dependent protein kinase kinase 2 (Homo sapiens) (UniProt Q96RR4); assay: Inhibition of wild-type human partial length CAMKK2 (D65 to V471 residues) expressed in bacterial expression system assessed as residual activity at 1 uM by Kinomescan method relative to control
[2] = molecular target: Fibroblast growth factor receptor 4 (Homo sapiens) (UniProt P22455); assay: Inhibition of wild-type human partial length FGFR4 (G402 to E713 residues) expressed in bacterial expression system assessed as residual activity at 1 uM by Kinomescan method relative to control
[3] = molecular target: Serine/threonine-protein kinase Nek7 (Homo sapiens) (UniProt Q8TDX7); assay: Inhibition of wild-type human full length NEK7 (M1 to S302 residues) expressed in bacterial expression system assessed as residual activity at 1 uM by Kinomescan method relative to control
[4] = molecular target: Tyrosine-protein kinase ABL1 (Homo sapiens) (UniProt P00519); assay: Inhibition of human ABL1 expressed in mammalian expression system assessed as residual activity at 1 uM by Kinomescan method relative to control
[5] = molecular target: Serine/threonine-protein kinase Chk2 (Homo sapiens) (UniProt O96017); assay: Inhibition of CHK2 (unknown origin) assessed as residual activity at 1 uM by Kinomescan method relative to control
[6] = molecular target: Insulin receptor (Homo sapiens) (UniProt P06213); assay: Inhibition of IR (unknown origin)assessed as residual activity at 1 uM by Kinomescan method relative to control
[7] = molecular target: RAC-beta serine/threonine-protein kinase (Homo sapiens) (UniProt P31751); assay: Inhibition of wild-type human partial length AKT2 expressed in bacterial expression system assessed as residual activity at 1 uM by Kinomescan method relative to control
[8] = molecular target: Serine/threonine-protein kinase WNK1 (Homo sapiens) (UniProt Q9H4A3); assay: Inhibition of wild-type human partial length WNK1 (Q194 to A490 residues) expressed in mammalian expression system assessed as residual activity at 1 uM by Kinomescan method relative to control
[9] = molecular target: Tyrosine-protein kinase ITK/TSK (Homo sapiens) (UniProt Q08881); assay: Inhibition of wild-type human partial length ITK (R335 to L620 residues) expressed in bacterial expression system assessed as residual activity at 1 uM by Kinomescan method relative to control
[10] = molecular target: Serine/threonine-protein kinase BRSK1 (Homo sapiens) (UniProt Q8TDC3); assay: Inhibition of wild-type human partial length BRSK1 (M1 to E754 residues) expressed in bacterial expression system assessed as residual activity at 1 uM by Kinomescan method relative to control
[11] = molecular target: Dual specificity protein kinase CLK3 (Homo sapiens) (UniProt P49761); assay: Inhibition of wild-type human full length CLK3 (M1 to R490 residues) expressed in bacterial expression system assessed as residual activity at 1 uM by Kinomescan method relative to control
[12] = molecular target: Aurora kinase B (Homo sapiens) (UniProt Q96GD4); assay: Inhibition of wild-type human partial length AURKB (D25 to A303 residues) expressed in mammalian expression system assessed as residual activity at 1 uM by Kinomescan method relative to control
[13] = molecular target: Cyclin-dependent kinase 5/CDK5 activator 1 (Homo sapiens) (UniProt Q00535+Q15078); assay: Inhibition of wild-type human full length CDK5 (M1 to P292 residues)/p25 expressed in bacterial expression system assessed as residual activity at 1 uM by Kinomescan method relative to control
[14] = molecular target: Misshapen-like kinase 1 (Homo sapiens) (UniProt Q8N4C8); assay: Inhibition of wild-type human partial length MINK (M1 to K312 residues) expressed in mammalian expression system assessed as residual activity at 1 uM by Kinomescan method relative to control
[15] = molecular target: Maternal embryonic leucine zipper kinase (Homo sapiens) (UniProt Q14680); assay: Inhibition of wild-type human full length MELK (M1 to V651 residues) expressed in bacterial expression system assessed as residual activity at 1 uM by Kinomescan method relative to control
[16] = In vivo inhibition of LRRK2 in Han-Wistar rat assessed as reduction in Ser935 phosphorylation in lung at 10 to 100 mg/kg, po by Western blot analysis; format: functional; design: scale not given: the % may be the effect or the level left; conditions: dose 10-100 mg/kg
[17] = molecular target: Homeodomain-interacting protein kinase 1 (Homo sapiens) (UniProt Q86Z02); assay: Inhibition of wild-type human partial length HIPK1 (M146 to I555 residues) expressed in mammalian expression system assessed as residual activity at 1 uM by Kinomescan method relative to control
[18] = molecular target: Mitogen-activated protein kinase kinase kinase 8 (Homo sapiens) (UniProt P41279); assay: Inhibition of COT1 (unknown origin) assessed as residual activity at 1 uM by Kinomescan method relative to control
[19] = molecular target: Tyrosine-protein kinase Fyn (Homo sapiens) (UniProt P06241); assay: Inhibition of wild-type human partial length FYN (T243 to L534 residues) expressed in bacterial expression system assessed as residual activity at 1 uM by Kinomescan method relative to control
[20] = molecular target: Dual specificity mitogen-activated protein kinase kinase 1 (Homo sapiens) (UniProt Q02750); assay: Inhibition of wild-type human full length MEK1 (M1 to V393 residues) expressed in mammalian expression system assessed as residual activity at 1 uM by Kinomescan method relative to control
[21] = molecular target: Mitogen-activated protein kinase kinase kinase kinase 1 (Homo sapiens) (UniProt Q92918); assay: Inhibition of wild-type human full length HPK1 (M1 to R799 residues) expressed in bacterial expression system assessed as residual activity at 1 uM by Kinomescan method relative to control
[22] = molecular target: Platelet-derived growth factor receptor alpha (Homo sapiens) (UniProt P16234); assay: Inhibition of wild-type human partial length PDGFRA (V575 to D1002 residues) expressed in mammalian expression system assessed as residual activity at 1 uM by Kinomescan method relative to control
[23] = In vivo inhibition of LRRK2 in C57BL6 mouse assessed as reduction in Ser935 phosphorylation in kidney at 45 mg/kg, po after 1 hr by Western blot analysis; format: functional; design: scale not given: the % may be the effect or the level left
[24] = molecular target: Vascular endothelial growth factor receptor 2 (Homo sapiens) (UniProt P35968); assay: Inhibition of wild-type human partial length VEGFR2 (R787 to P1253 residues) expressed in mammalian expression system assessed as residual activity at 1 uM by Kinomescan method relative to control
[25] = molecular target: Casein kinase I isoform alpha-like (Homo sapiens) (UniProt Q8N752); assay: Inhibition of CK1a1L (unknown origin) assessed as residual activity at 1 uM by Kinomescan method relative to control
[26] = molecular target: Tyrosine-protein kinase Fer (Homo sapiens) (UniProt P16591); assay: Inhibition of wild-type human partial length FER (S542 to T822 residues) expressed in bacterial expression system assessed as residual activity at 1 uM by Kinomescan method relative to control
[27] = molecular target: Dual specificity protein kinase CLK4 (Homo sapiens) (UniProt Q9HAZ1); assay: Inhibition of wild-type human partial length CLK4 (R135 to K481 residues) expressed in bacterial expression system assessed as residual activity at 1 uM by Kinomescan method relative to control

Chain of RAC-beta serine/threonine-protein kinase (Homo sapiens) (P31751 whole entry, the tested form may be a part): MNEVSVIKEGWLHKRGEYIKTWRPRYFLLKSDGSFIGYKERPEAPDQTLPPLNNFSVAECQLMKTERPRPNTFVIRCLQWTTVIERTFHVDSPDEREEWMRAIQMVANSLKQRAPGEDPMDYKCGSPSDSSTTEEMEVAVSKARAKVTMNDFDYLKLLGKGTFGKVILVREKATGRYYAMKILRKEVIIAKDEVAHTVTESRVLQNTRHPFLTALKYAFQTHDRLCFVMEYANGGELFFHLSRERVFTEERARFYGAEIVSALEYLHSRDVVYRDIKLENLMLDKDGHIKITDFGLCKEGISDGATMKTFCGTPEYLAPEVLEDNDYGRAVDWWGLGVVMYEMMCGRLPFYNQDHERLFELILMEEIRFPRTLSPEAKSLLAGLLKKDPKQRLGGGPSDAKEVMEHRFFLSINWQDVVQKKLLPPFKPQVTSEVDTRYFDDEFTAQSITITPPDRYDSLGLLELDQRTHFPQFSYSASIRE
Chain of Calcium/calmodulin-dependent protein kinase kinase 2 (Homo sapiens) (Q96RR4 2-588 limits assumed): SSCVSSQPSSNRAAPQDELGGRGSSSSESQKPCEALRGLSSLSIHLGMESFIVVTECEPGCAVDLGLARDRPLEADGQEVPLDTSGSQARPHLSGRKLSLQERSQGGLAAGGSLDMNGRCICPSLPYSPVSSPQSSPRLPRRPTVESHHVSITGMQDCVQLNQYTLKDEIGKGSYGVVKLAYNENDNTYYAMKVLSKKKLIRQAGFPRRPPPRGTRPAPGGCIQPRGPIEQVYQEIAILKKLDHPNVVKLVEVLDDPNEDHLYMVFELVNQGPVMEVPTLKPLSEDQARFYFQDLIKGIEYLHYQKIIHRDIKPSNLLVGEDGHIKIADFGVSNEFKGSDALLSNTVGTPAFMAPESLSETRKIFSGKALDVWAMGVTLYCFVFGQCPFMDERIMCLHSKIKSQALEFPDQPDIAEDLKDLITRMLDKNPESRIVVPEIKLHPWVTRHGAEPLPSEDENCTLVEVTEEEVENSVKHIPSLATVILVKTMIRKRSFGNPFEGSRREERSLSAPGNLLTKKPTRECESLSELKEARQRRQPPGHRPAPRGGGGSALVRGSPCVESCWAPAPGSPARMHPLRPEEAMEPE
Chain of Cyclin-dependent kinase 5/CDK5 activator 1 (Homo sapiens) (Q00535 whole entry, the tested form may be a part): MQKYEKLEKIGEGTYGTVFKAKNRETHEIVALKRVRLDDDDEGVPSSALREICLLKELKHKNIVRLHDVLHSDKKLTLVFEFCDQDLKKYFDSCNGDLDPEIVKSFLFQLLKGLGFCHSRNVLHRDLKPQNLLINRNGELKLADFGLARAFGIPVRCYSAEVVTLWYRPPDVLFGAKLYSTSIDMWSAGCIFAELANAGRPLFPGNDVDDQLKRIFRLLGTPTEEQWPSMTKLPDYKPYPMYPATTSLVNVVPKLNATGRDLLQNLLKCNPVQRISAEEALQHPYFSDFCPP
Chain of Cyclin-dependent kinase 5/CDK5 activator 1 (Homo sapiens) (Q15078 99-307 partner limits assumed): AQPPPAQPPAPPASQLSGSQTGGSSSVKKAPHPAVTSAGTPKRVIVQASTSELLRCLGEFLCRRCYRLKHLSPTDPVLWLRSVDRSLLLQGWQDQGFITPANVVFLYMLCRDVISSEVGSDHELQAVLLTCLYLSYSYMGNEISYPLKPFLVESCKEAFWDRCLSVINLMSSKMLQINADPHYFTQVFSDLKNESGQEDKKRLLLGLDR
Chain of Serine/threonine-protein kinase WNK1 (Homo sapiens) (Q9H4A3 whole entry, looked up, the tested form may be a part): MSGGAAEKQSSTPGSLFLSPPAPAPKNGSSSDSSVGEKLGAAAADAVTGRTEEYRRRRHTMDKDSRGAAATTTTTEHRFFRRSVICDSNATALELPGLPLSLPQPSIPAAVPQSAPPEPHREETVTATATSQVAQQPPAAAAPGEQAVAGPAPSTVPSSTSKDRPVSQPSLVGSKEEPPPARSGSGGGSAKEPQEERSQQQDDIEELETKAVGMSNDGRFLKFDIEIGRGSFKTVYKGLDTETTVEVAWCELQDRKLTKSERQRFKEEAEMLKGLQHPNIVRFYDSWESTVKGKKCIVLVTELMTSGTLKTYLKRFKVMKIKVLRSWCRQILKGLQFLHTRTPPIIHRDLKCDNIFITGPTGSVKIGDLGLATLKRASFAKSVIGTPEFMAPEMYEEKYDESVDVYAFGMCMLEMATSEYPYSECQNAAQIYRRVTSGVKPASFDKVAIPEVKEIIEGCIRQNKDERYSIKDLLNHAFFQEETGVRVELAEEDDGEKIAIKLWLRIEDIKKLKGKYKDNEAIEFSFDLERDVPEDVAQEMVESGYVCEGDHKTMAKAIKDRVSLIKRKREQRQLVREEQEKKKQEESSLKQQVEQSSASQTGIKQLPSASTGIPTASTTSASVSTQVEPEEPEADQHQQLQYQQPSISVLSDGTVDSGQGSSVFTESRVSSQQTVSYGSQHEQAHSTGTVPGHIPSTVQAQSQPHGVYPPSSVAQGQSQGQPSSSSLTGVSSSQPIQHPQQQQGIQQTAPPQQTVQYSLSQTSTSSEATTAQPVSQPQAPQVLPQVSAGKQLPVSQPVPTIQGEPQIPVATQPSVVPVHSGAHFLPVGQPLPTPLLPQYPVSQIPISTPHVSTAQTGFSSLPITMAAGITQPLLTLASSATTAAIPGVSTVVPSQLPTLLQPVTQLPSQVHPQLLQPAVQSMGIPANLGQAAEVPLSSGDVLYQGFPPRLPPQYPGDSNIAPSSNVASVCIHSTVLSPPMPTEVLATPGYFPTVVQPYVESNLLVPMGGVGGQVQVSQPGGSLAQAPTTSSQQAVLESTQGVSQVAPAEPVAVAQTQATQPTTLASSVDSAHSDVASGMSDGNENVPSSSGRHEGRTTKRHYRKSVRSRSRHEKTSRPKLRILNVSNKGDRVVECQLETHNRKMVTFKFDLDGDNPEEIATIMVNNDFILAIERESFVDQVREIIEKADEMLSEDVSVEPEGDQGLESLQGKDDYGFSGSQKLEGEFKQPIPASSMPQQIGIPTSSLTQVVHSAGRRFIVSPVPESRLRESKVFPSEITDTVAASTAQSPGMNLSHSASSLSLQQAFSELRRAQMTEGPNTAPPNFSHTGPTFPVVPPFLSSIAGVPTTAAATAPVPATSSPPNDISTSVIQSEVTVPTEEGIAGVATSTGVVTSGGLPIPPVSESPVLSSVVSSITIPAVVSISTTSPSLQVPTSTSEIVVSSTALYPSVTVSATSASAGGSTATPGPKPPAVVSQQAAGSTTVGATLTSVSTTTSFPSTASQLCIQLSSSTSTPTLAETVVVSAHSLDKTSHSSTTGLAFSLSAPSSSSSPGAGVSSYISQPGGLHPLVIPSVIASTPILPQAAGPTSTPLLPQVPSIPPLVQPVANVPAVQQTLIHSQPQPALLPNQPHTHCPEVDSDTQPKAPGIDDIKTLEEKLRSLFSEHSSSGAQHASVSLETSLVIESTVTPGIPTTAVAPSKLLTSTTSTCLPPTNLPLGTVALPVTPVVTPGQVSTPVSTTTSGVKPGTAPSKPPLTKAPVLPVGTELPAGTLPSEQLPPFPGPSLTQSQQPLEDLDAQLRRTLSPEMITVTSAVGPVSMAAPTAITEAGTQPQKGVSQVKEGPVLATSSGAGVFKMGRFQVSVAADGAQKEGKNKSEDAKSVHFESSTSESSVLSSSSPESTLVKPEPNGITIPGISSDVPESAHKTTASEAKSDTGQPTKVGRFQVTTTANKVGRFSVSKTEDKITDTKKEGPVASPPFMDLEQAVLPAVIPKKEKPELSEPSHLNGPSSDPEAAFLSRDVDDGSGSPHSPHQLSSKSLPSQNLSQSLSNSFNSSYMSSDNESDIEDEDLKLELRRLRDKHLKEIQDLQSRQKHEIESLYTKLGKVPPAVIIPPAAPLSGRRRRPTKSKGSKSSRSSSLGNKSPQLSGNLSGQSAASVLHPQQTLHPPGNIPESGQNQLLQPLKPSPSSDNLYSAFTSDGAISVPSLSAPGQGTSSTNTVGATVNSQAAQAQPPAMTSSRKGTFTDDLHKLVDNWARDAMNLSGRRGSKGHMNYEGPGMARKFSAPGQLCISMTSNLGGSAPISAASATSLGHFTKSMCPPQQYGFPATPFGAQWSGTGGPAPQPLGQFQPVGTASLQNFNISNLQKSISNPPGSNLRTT
Chain of Aurora kinase B (Homo sapiens) (Q96GD4 whole entry, the tested form may be a part): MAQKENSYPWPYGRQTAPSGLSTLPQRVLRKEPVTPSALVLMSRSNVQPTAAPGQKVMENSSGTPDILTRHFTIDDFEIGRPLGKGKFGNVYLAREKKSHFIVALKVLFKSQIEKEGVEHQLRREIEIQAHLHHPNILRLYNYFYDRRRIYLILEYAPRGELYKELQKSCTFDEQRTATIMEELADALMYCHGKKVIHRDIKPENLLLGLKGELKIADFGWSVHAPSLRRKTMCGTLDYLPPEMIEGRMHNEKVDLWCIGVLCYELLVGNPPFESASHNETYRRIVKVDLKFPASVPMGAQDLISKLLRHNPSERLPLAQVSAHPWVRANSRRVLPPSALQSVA
Chain of Serine/threonine-protein kinase BRSK1 (Homo sapiens) (Q8TDC3 whole entry, the tested form may be a part): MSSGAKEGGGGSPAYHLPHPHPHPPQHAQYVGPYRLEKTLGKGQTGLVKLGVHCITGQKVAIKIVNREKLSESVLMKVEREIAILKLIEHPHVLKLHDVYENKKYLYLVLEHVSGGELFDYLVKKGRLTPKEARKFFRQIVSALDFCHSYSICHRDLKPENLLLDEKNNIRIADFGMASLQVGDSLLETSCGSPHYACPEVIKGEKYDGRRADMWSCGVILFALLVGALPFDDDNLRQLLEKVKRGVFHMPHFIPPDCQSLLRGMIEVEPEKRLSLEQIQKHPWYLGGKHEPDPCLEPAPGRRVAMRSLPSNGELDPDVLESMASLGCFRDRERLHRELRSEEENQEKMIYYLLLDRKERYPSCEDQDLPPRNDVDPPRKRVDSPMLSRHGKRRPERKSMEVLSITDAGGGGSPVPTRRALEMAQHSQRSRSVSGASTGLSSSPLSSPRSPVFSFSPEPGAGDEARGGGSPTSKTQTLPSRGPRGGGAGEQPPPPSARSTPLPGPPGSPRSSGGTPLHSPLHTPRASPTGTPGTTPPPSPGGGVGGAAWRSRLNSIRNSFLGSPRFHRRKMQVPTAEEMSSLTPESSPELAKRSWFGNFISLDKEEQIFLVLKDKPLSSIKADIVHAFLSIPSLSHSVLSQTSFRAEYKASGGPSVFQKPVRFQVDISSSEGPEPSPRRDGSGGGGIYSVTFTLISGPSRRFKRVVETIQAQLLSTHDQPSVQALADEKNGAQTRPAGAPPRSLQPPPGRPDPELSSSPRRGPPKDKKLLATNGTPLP

For `CCOc1nc(Nc2ccc(C(=O)N3CCOCC3)cc2OC)nc2[nH]ccc12`, the Activity [1] was 81.6%, the Activity [2] was 83.7% and the Activity [3] was 97.7%. For the same compound, the Activity [4] was 105%, the Activity [5] was 16.8% and the Activity [6] was 14.9%. For the same compound, the Activity [7] was 97.1%, the Activity [8] was 78.5% and the Activity [9] was 99.8%. For the same compound, the Activity [10] was 134%, the Activity [11] was 90.1% and the Activity [12] was 90.7%. The Activity [13] was 85.8%, the Activity [14] was 107% and the Activity [15] was 97.9%. The Activity [16] was 100%, the Activity [17] was 108% and the Activity [18] was 101%. For the same compound, the Activity [19] was 109%, the Activity [20] was 100% and the Activity [21] was 86.6%. It also gave an Activity [22] of 101%, an Activity [23] of 80% and an Activity [24] of 97.7%. For the same compound, the Activity [25] was 95%, the Activity [26] was 36.5% and the Activity [27] was 35.5%.
